Measurements published in patent US20240199546A1, “INHIBITORS OF SOLUTE CARRIER FAMILY 6A MEMBER 19 (SLC6A19) AND METHODS OF USE THEREOF” (Maze Therapeutics, Inc., priority 2022, published 2024).

Biological target: T1, human SLC6A19 and TMEM27 (Homo sapiens, UniProt Q695T7)
T1 construct: expressed in transfected cells
T1 sequence (Q695T7 1-634): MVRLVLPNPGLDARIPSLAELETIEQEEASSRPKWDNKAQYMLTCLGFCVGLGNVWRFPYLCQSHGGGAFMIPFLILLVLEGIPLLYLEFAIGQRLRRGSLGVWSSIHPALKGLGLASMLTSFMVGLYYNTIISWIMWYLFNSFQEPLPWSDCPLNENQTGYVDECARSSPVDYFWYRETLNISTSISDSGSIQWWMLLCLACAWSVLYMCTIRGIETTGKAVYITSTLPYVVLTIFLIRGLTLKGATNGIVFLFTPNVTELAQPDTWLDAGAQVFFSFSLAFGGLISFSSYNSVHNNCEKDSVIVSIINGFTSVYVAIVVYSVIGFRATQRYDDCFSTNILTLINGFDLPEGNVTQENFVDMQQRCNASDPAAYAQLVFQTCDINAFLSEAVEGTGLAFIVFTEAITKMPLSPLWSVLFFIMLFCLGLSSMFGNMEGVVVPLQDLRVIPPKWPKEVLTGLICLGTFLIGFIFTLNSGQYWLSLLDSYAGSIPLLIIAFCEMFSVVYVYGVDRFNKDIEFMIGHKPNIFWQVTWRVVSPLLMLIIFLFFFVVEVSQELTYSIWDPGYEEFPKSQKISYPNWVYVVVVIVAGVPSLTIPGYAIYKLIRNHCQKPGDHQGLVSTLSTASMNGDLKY
T1 sequence (Q9HBJ8 15-222 partner): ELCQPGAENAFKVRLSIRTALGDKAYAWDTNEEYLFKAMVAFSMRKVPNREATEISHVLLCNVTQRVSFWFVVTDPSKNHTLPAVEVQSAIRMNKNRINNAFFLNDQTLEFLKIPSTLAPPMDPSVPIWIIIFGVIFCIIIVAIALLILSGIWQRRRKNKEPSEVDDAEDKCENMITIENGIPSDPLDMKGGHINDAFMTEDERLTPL
Assay: Radiolabelled (3H) leucine uptake in CHO cells with doxycycline-inducible expression of human SLC6A19 and TMEM27 (Example B-1)
Format: cell-based
Conditions: CHO cells with doxycycline-inducible expression of human SLC6A19 and TMEM27, read-out: SLC6A19_Radioligand Uptake Assay IC50
In short: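 CHO cells were induced with doxycycline for 18 h at 37 °C, washed in HBSS, then exposed to compounds for 1 h: 8-point, 3-fold dilutions in duplicate, 0.5% DMSO final. Uptake measured by scintillation counting after 2 h shaking. Activity normalized with positive control as 0% and DMSO as 100%.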

Row | SMILES | IC50 [µM]
1 | CSc1cc2cc(CNC(=O)C3(C)CC3)[nH]c2cc1OCc1cscn1 [Compound 348, 1-methyl-N-((5-(methylthio)-6-(thiazol-4-ylmethoxy)-1H-indol-2-yl)methyl)cyclopropane-1-carboxamide] | 0.516
2 | CC(=O)NCc1cc2ccc(OCc3cc(C)no3)cc2[nH]1 [Compound 349, N-((6-((3-methylisoxazol-5-yl)methoxy)-1H-indol-2-yl)methyl)acetamide] | 2.93
3 | CC1(C(=O)NCc2cc3cc(Cl)c(OCc4ccc5cc[nH]c5c4)cc3[nH]2)CC1 [Compound 350, N-((6-((1H-indol-6-yl)methoxy)-5-chloro-1H-indol-2-yl)methyl)-1-methylcyclopropane-1-carboxamide] | > 8.38
4 | CC1(C(=O)NCc2cc3cc(Cl)c(OCC4CC(F)(F)C4)cc3[nH]2)CC1 [Compound 353, N-((5-chloro-6-((3,3-difluorocyclobutyl)methoxy)-1H-indol-2-yl)methyl)-1-methylcyclopropane-1-carboxamide] | 1.93
5 | CC1(C(=O)NCc2cc3ccc(OCc4cc(C(F)(F)F)on4)cc3[nH]2)CC1 [Compound 354, 1-methyl-N-((6-((5-(trifluoromethyl)isoxazol-3-yl)methoxy)-1H-indol-2-yl)methyl)cyclopropane-1-carboxamide] | > 5.28
6 | CC(=O)NCc1cc2cc(Cl)c(OCC3COC3)cc2[nH]1 [Compound 355, N-((5-chloro-6-(oxetan-3-ylmethoxy)-1H-indol-2-yl)methyl)acetamide] | 6.6
7 | CC1(C(=O)NCc2cc3cc(Cl)c(OCc4cnccc4F)cc3[nH]2)CC1 [Compound 356, N-((5-chloro-6-((4-fluoropyridin-3-yl)methoxy)-1H-indol-2-yl)methyl)-1-methylcyclopropane-1-carboxamide] | 0.389
8 | O=C(NCc1cc2cc(F)c(OCc3cocn3)cc2[nH]1)N1CCC1 [Compound 358, N-((5-fluoro-6-(oxazol-4-ylmethoxy)-1H-indol-2-yl)methyl)azetidine-1-carboxamide] | 0.319
9 | CN(C(=O)NCc1cc2cc(Cl)c(OCc3cscn3)cc2[nH]1)C1CC1 [Compound 359, 3-((5-chloro-6-(thiazol-4-ylmethoxy)-1H-indol-2-yl)methyl)-1-cyclopropyl-1-methylurea] | 0.231
10 | C[C@H]1CCN1C(=O)NCc1cc2cc(Cl)c(OCc3cscn3)cc2[nH]1 [Compound 360, (S)-N-((5-chloro-6-(thiazol-4-ylmethoxy)-1H-indol-2-yl)methyl)-2-methylazetidine-1-carboxamide] | 0.432
11 | C[C@@H]1CCN1C(=O)NCc1cc2cc(Cl)c(OCc3cscn3)cc2[nH]1 [Compound 361, (R)-N-((5-chloro-6-(thiazol-4-ylmethoxy)-1H-indol-2-yl)methyl)-2-methylazetidine-1-carboxamide] | 0.286
12 | C[C@H]1CCN1C(=O)NCc1cc2cc(Cl)c(OCc3ccon3)cc2[nH]1 [Compound 362, (S)-N-((5-chloro-6-(isoxazol-3-ylmethoxy)-1H-indol-2-yl)methyl)-2-methylazetidine-1-carboxamide] | 0.983
13 | C[C@@H]1CCN1C(=O)NCc1cc2cc(Cl)c(OCc3ccon3)cc2[nH]1 [Compound 363, (R)-N-((5-chloro-6-(isoxazol-3-ylmethoxy)-1H-indol-2-yl)methyl)-2-methylazetidine-1-carboxamide] | 0.332
14 | COC1CN(C(=O)NCc2cc3cc(Cl)c(OCc4cscn4)cc3[nH]2)C1 [Compound 364, N-((5-chloro-6-(thiazol-4-ylmethoxy)-1H-indol-2-yl)methyl)-3-methoxyazetidine-1-carboxamide] | 0.69
15 | O=C(NCc1cc2cc(Cl)c(OCc3cscn3)cc2[nH]1)N1CC(O)C1 [Compound 367, N-((5-chloro-6-(thiazol-4-ylmethoxy)-1H-indol-2-yl)methyl)-3-hydroxyazetidine-1-carboxamide] | 1.24
16 | O=C(NCc1cc2cc(Cl)c(OCc3cscn3)cc2[nH]1)N1CC(CO)C1 [Compound 368, N-((5-chloro-6-(thiazol-4-ylmethoxy)-1H-indol-2-yl)methyl)-3-(hydroxymethyl)azetidine-1-carboxamide] | > 5.48

Row | SMILES | IC50 [µM]
17 | CCNC(=O)NCc1cc2cc(Cl)c(OCc3cc(C)no3)cc2[nH]1 [Compound 369, 1-((5-chloro-6-((3-methylisoxazol-5-yl)methoxy)-1H-indol-2-yl)methyl)-3-ethylurea] | 0.125
18 | Cc1cc(COc2cc3[nH]c(CNC(=O)N4CC(F)(F)C4)cc3cc2Cl)on1 [Compound 370, N-((5-chloro-6-((3-methylisoxazol-5-yl)methoxy)-1H-indol-2-yl)methyl)-3,3-difluoroazetidine-1-carboxamide] | 0.486
19 | Cc1cc(COc2cc3[nH]c(CNC(=O)NCCF)cc3cc2Cl)on1 [Compound 371, 1-((5-chloro-6-((3-methylisoxazol-5-yl)methoxy)-1H-indol-2-yl)methyl)-3-(2-fluoroethyl)urea] | 0.141
20 | Cc1cc(COc2cc3[nH]c(CNC(=O)N4CC(F)C4)cc3cc2Cl)on1 [Compound 372, N-((5-chloro-6-((3-methylisoxazol-5-yl)methoxy)-1H-indol-2-yl)methyl)-3-fluoroazetidine-1-carboxamide] | 0.253
21 | Cc1cc(COc2cc3[nH]c(CNC(=O)NCC(F)F)cc3cc2Cl)on1 [Compound 374, 1-((5-chloro-6-((3-methylisoxazol-5-yl)methoxy)-1H-indol-2-yl)methyl)-3-(2,2-difluoroethyl)urea] | 0.412
22 | Cc1cc(COc2cc3[nH]c(CNC(=O)N4CCC4C#N)cc3cc2Cl)on1 (centres unmarked) [Compound 376, N-((5-chloro-6-((3-methylisoxazol-5-yl)methoxy)-1H-indol-2-yl)methyl)-2-cyanoazetidine-1-carboxamide] | 2.12
23 | Cc1cc(COc2cc3[nH]c(CNC(=O)N4CCC(C(F)F)C4)cc3cc2Cl)on1 (centres unmarked) [Compound 377, N-((5-chloro-6-((3-methylisoxazol-5-yl)methoxy)-1H-indol-2-yl)methyl)-3-(difluoromethyl)pyrrolidine-1-carboxamide] | 0.847
24 | Cc1cc(COc2cc3[nH]c(CNC(=O)N4CCC45COC5)cc3cc2Cl)on1 [Compound 378, N-((5-chloro-6-((3-methylisoxazol-5-yl)methoxy)-1H-indol-2-yl)methyl)-6-oxa-1-azaspiro[3.3]heptane-1-carboxamide] | 5.51
25 | COCCNC(=O)NCc1cc2cc(Cl)c(OCc3cscn3)cc2[nH]1 [Compound 380, 1-((5-chloro-6-(thiazol-4-ylmethoxy)-1H-indol-2-yl)methyl)-3-(2-methoxyethyl)urea] | 1.13
26 | C[C@@H]1CCN(C(=O)NCc2cc3cc(F)c(OCc4ccon4)cc3[nH]2)C1 [Compound 381, (R)-N-((5-fluoro-6-(isoxazol-3-ylmethoxy)-1H-indol-2-yl)methyl)-3-methylpyrrolidine-1-carboxamide] | 0.339
27 | C[C@H]1CCN(C(=O)NCc2cc3cc(F)c(OCc4ccon4)cc3[nH]2)C1 [Compound 382, (S)-N-((5-fluoro-6-(isoxazol-3-ylmethoxy)-1H-indol-2-yl)methyl)-3-methylpyrrolidine-1-carboxamide] | 0.42
28 | C[C@@H]1CCCN1C(=O)NCc1cc2cc(F)c(OCc3ccon3)cc2[nH]1 [Compound 383, (R)-N-((5-fluoro-6-(isoxazol-3-ylmethoxy)-1H-indol-2-yl)methyl)-2-methylpyrrolidine-1-carboxamide] | 0.178
29 | C[C@H]1CCCN1C(=O)NCc1cc2cc(F)c(OCc3ccon3)cc2[nH]1 [Compound 384, (S)-N-((5-fluoro-6-(isoxazol-3-ylmethoxy)-1H-indol-2-yl)methyl)-2-methylpyrrolidine-1-carboxamide] | 1.57
30 | C[C@H]1CCCN1C(=O)NCc1cc2cc(F)c(OCc3cscn3)cc2[nH]1 [Compound 385, (S)-N-((5-fluoro-6-(thiazol-4-ylmethoxy)-1H-indol-2-yl)methyl)-2-methylpyrrolidine-1-carboxamide] | 0.549
31 | C[C@@H]1CCCN1C(=O)NCc1cc2cc(F)c(OCc3cscn3)cc2[nH]1 [Compound 386, (R)-N-((5-fluoro-6-(thiazol-4-ylmethoxy)-1H-indol-2-yl)methyl)-2-methylpyrrolidine-1-carboxamide] | 0.174
32 | C[C@@H]1CCN(C(=O)NCc2cc3cc(F)c(OCc4cscn4)cc3[nH]2)C1 [Compound 387, (R)-N-((5-fluoro-6-(thiazol-4-ylmethoxy)-1H-indol-2-yl)methyl)-3-methylpyrrolidine-1-carboxamide] | 0.209
